In US9346809B2 (LEO PHARMA A/S, priority 2009, dated 2016):
Like-named read-outs stand apart in the source and are kept apart here.

Legend:
Format in all cases: biochemical
[1] = biological target: T1, JAK3 (catalytic domain, His-tag) (Homo sapiens, UniProt P52333); assay: JAK kinase assay (HTRF, phosphorylation of TK substrate-biotin), JAK3; settings: ATP at Km (2 μM)
T1 construct: All four purified enzymes contain only the catalytic domain; His (N); purchased Carna Biosciences, Inc; host or cells: baculovirus expression system
T1 sequence (P52333 822-1111 limits assumed): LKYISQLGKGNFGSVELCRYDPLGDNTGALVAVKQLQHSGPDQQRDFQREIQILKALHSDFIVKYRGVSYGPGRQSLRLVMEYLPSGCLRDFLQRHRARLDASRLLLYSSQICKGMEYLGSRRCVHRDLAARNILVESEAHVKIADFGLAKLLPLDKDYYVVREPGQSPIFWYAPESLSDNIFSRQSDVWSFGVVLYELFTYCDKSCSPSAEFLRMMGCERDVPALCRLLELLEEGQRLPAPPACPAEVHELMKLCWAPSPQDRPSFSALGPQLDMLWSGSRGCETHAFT
Summary of the method: (§1)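 Per reaction, 5 ng JAK1, 0.1 ng JAK2, 0.3 ng JAK3 or 0.8 ng TYK2 (baculovirus-expressed catalytic domains) acted on 1 μM TK substrate-biotin at Km ATP for 20-30 min, RT. Phosphorylation measured by HTRF.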

[2] = biological target: T2, JAK1 (aa 850-1154, catalytic domain, GST-tag) (Homo sapiens, UniProt P23458); assay: JAK kinase assay (HTRF, phosphorylation of TK substrate-biotin), JAK1; settings: ATP at Km (7 μM)
T2 construct: JAK1 (aa 850-1154) and TYK2 (aa 871-1187) are expressed with an N-terminally fused GST-tag; GST (N); purchased Carna Biosciences, Inc; host or cells: baculovirus expression system
T2 sequence (P23458 850-1154): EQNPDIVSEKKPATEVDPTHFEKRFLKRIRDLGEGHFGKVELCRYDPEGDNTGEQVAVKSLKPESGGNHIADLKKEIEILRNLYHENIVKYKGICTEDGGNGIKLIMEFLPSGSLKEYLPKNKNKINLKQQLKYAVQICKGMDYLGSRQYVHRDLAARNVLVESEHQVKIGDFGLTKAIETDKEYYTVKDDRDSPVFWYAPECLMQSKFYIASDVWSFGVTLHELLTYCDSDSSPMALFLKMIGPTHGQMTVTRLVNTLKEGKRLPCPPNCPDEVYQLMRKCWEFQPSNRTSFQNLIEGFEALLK
Summary of the method: as §1

[3] = biological target: T3, JAK2 (catalytic domain, His-tag) (Homo sapiens, UniProt O60674); assay: JAK kinase assay (HTRF, phosphorylation of TK substrate-biotin), JAK2; settings: ATP at Km (4 μM)
T3 construct: All four purified enzymes contain only the catalytic domain; His (N); purchased Carna Biosciences, Inc; host or cells: baculovirus expression system
T3 sequence (O60674 849-1124 limits assumed): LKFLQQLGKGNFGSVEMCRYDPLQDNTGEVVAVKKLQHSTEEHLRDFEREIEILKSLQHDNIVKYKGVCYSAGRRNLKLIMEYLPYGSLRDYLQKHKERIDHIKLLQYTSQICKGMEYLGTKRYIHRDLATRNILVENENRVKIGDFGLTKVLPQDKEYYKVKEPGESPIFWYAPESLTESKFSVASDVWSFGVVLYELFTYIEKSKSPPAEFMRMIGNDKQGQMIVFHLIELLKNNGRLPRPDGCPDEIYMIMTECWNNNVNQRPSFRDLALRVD
Summary of the method: as §1

[4] = biological target: T4, TYK2 (aa 871-1187, catalytic domain, GST-tag) (Homo sapiens, UniProt P29597); assay: JAK kinase assay (HTRF, phosphorylation of TK substrate-biotin), TYK2; settings: ATP at Km (13 μM)
T4 construct: JAK1 (aa 850-1154) and TYK2 (aa 871-1187) are expressed with an N-terminally fused GST-tag; GST (N); purchased Carna Biosciences, Inc; host or cells: baculovirus expression system
T4 sequence (P29597 871-1187): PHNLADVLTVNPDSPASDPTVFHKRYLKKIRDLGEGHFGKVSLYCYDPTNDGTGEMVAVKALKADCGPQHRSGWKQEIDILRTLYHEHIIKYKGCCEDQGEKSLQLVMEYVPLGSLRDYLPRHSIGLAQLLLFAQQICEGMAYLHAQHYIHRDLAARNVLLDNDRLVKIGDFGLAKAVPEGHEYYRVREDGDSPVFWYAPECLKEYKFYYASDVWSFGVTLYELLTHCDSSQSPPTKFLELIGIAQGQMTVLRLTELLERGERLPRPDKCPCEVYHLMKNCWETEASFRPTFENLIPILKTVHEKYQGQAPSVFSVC
Summary of the method: as §1

[5] = read-out: JAK3 kinase inhibitory activity (EC50 indicator)
[6] = read-out: JAK1 kinase inhibitory activity (EC50 indicator)
[7] = read-out: JAK2 kinase inhibitory activity (EC50 indicator)
[8] = read-out: TYK2 kinase inhibitory activity (EC50 indicator)
[9] = HTRF assay, read-out: JAK3 kinase inhibitory activity (EC50 indicator)
[10] = HTRF assay, read-out: JAK1 kinase inhibitory activity (EC50 indicator)
[11] = HTRF assay, read-out: JAK2 kinase inhibitory activity (EC50 indicator)
[12] = HTRF assay, read-out: TYK2 kinase inhibitory activity (EC50 indicator)
[13] = HTRF assay, read-out: JAK3 kinase inhibitory activity (EC50)
[14] = HTRF assay, read-out: JAK1 kinase inhibitory activity (EC50)
[15] = HTRF assay, read-out: JAK2 kinase inhibitory activity (EC50)
[16] = HTRF assay, read-out: TYK2 kinase inhibitory activity (EC50)

Row | SMILES | EC50 [1, 5] | EC50 [2, 6] | EC50 [3, 7] | EC50 [4, 8] | further results
1 | CC(C)S(=O)(=O)c1ccc(C(=O)N2CCN(c3ncnc4[nH]ccc34)CC23CC3)cc1 [Example 196, [4-(Propane-2-sulfonyl)-phenyl]-[7-(7H-pyrrolo[2,3-d]pyrimidin-4-yl)-4,7-diaza-spiro[2.5]oct-4-yl]-methanone] | 0.1 to 0.5 µM | < 0.1 µM | < 0.1 µM | > 0.5 µM | –
2 | COc1cc(S(N)(=O)=O)ccc1C(=O)N1[C@@H]2CC[C@H]1CN(c1ncnc3[nH]ccc13)C2 [Example 393, 3-Methoxy-4-[3-(7H-pyrrolo[2,3-d]pyrimidin-4-yl)-3,8-diaza-bicyclo[3.2.1]octane-8-carbonyl]-benzenesulfonamide] | – | – | – | – | EC50 [1, 9]: < 0.1 µM; EC50 [2, 10]: < 0.1 µM; EC50 [3, 11]: < 0.1 µM; EC50 [4, 12]: 0.1 to 0.5 µM
3 | NS(=O)(=O)c1ccc2[nH]c(C(=O)N3CCN(c4ncnc5[nH]ccc45)CC34CC4)cc2c1 [Example 186, 2-[7-(7H-Pyrrolo[2,3-d]pyrimidin-4-yl)-4,7-diaza-spiro[2.5]octane-4-carbonyl]-1H-indole-5-sulfonic acid amide] | < 0.1 µM | < 0.1 µM | < 0.1 µM | < 0.1 µM | –
4 | COc1cc(OC)cc(C(=O)N2CCN(c3ncnc4[nH]ccc34)CC23CC3)c1 [Example 213, (3,5-Dimethoxy-phenyl)-[7-(7H-pyrrolo[2,3-d]pyrimidin-4-yl)-4,7-diaza-spiro[2.5]oct-4-yl]-methanone] | – | – | – | – | EC50 [1, 9]: 0.1 to 0.5 µM; EC50 [2, 10]: < 0.1 µM; EC50 [3, 11]: < 0.1 µM; EC50 [4, 12]: 0.1 to 0.5 µM
5 | O=C(CCc1ccccc1)N1CCN(c2ncnc3[nH]ccc23)CC12CC2 [Example 153, 3-Phenyl-1-[7-(7H-pyrrolo[2,3-d]pyrimidin-4-yl)-4,7-diaza-spiro[2.5]oct-4-yl]-propan-1-one] | 0.1 to 0.5 µM | < 0.1 µM | < 0.1 µM | > 0.5 µM | –
6 | N#CC1(C(=O)N2CCN(c3ncnc4[nH]ccc34)CC23CC3)CCCC1 [Example 114, 1-[7-(7H-Pyrrolo[2,3-d]pyrimidin-4-yl)-4,7-diaza-spiro[2.5]octane-4-carbonyl]-cyclopentanecarbonitrile] | 0.1 to 0.5 µM | 0.1 to 0.5 µM | < 0.1 µM | > 0.5 µM | –
7 | Cc1c[nH]c2ncnc(N3CCN(C(=O)CCCC#N)C4(CC4)C3)c12 [Example 332, 5-[7-(5-Methyl-7H-pyrrolo[2,3-d]pyrimidin-4-yl)-4,7-diaza-spiro[2.5]oct-4-yl]-5-oxo-pentanenitrile] | – | – | – | – | EC50 [1, 9]: > 0.5 µM; EC50 [2, 10]: > 0.5 µM; EC50 [3, 11]: > 0.5 µM; EC50 [4, 12]: > 0.5 µM
8 | CN(CC#N)C(=O)C1(C(=O)N2CCN(c3ncnc4[nH]ccc34)CC23CC3)CC1 [Example 86, 1-[7-(7H-Pyrrolo[2,3-d]pyrimidin-4-yl)-4,7-diaza-spiro[2.5]octane-4-carbonyl]-cyclopropanecarboxylic acid cyanomethyl-methyl-amide] | > 0.5 µM | > 0.5 µM | 0.1 to 0.5 µM | > 0.5 µM | –
9 | O=C(OC1CCCC1)N1CCN(c2ncnc3[nH]ccc23)CC12CC2 [Example 450, 7-(7H-Pyrrolo[2,3-d]pyrimidin-4-yl)-4,7-diaza-spiro[2.5]octane-4-carboxylic acid cyclopentyl ester] | – | – | – | – | EC50 [1, 13]: < 0.1 µM; EC50 [2, 14]: < 0.1 µM; EC50 [3, 15]: < 0.1 µM; EC50 [4, 16]: < 0.1 µM
10 | N#Cc1ccc(C(=O)N2CCN(c3ccnc4[nH]ccc34)CC23CC3)cc1 [Example 226, 4-[7-(1H-Pyrrolo[2,3-b]pyridin-4-yl)-4,7-diaza-spiro[2.5]octane-4-carbonyl]-benzonitrile] | – | – | – | – | EC50 [1, 9]: > 0.5 µM; EC50 [2, 10]: < 0.1 µM; EC50 [3, 11]: 0.1 to 0.5 µM; EC50 [4, 12]: > 0.5 µM
11 | S=C(NCc1ccccc1)N1[C@@H]2CC[C@H]1CN(c1ncnc3[nH]ccc13)C2 [Example 11, 3-(7H-Pyrrolo[2,3-d]pyrimidin-4-yl)-3,8-diazabicyclo[3.2.1]octane-8-carbothioic acid benzylamide] | 0.1 to 0.5 µM | < 0.1 µM | < 0.1 µM | > 0.5 µM | –
12 | N#Cc1csc(C(=O)N2C3CCC2CN(c2ncnc4[nH]ccc24)C3)c1 [Example 199, 5-[3-(7H-Pyrrolo[2,3-d]pyrimidin-4-yl)-3,8-diaza-bicyclo[3.2.1]octane-8-carbonyl]-thiophene-3-carbonitrile] | < 0.1 µM | < 0.1 µM | < 0.1 µM | 0.1 to 0.5 µM | –
13 | Cc1ccc2sc(C(=O)N3CCN(c4ncnc5[nH]ccc45)CC34CC4)cc2c1 [Example 297, (5-Methyl-benzo[b]thiophen-2-yl)-[7-(7H-pyrrolo[2,3-d]pyrimidin-4-yl)-4,7-diaza-spiro[2.5]oct-4-yl]-methanone] | – | – | – | – | EC50 [1, 9]: 0.1 to 0.5 µM; EC50 [2, 10]: < 0.1 µM; EC50 [3, 11]: < 0.1 µM; EC50 [4, 12]: 0.1 to 0.5 µM
14 | N#Cc1ccc(CS(=O)(=O)N2[C@@H]3CC[C@H]2CN(c2ncnc4[nH]ccc24)C3)cc1 [Example 78, 4-[3-(7H-Pyrrolo[2,3-d]pyrimidin-4-yl)-3,8-diaza-bicyclo[3.2.1]octane-8-sulfonylmethyl]-benzonitrile] | 0.1 to 0.5 µM | < 0.1 µM | 0.1 to 0.5 µM | > 0.5 µM | –
15 | CN(C1CCCCC1)S(=O)(=O)N1CCN(c2ncnc3[nH]ccc23)CC12CC2 [Example 460, 7-(7H-Pyrrolo[2,3-d]pyrimidin-4-yl)-4,7-diaza-spiro[2.5]octane-4-sulfonic acid cyclohexyl-methyl-amide] | – | – | – | – | EC50 [1, 13]: 0.1 to 0.5 µM; EC50 [2, 14]: < 0.1 µM; EC50 [3, 15]: < 0.1 µM; EC50 [4, 16]: 0.1 to 0.5 µM
16 | COC(=O)c1cc2c(N3CCN(C(=O)Cc4ccc(C#N)cc4)C4(CC4)C3)ncnc2[nH]1 [Example 124, 4-{4-[2-(4-Cyano-phenyl)-acetyl]-4,7-diaza-spiro[2.5]oct-7-yl}-7H-pyrrolo[2,3-d]pyrimidine-6-carboxylic acid methyl ester] | > 0.5 µM | > 0.5 µM | > 0.5 µM | > 0.5 µM | –
17 | N#CCN1CCCC(C(=O)N2CCN(c3ncnc4[nH]ccc34)CC23CC3)C1 (centres unmarked) [Example 94, {3-[7-(7H-Pyrrolo[2,3-d]pyrimidin-4-yl)-4,7-diaza-spiro[2.5]octane-4-carbonyl]-piperidin-1-yl}-acetonitrile] | 0.1 to 0.5 µM | 0.1 to 0.5 µM | < 0.1 µM | 0.1 to 0.5 µM | –
18 | Cn1cc(S(N)(=O)=O)cc1C(=O)N1CCN(c2ncnc3[nH]ccc23)CC12CC2 [Example 188, 1-Methyl-5-[7-(7H-pyrrolo[2,3-d]pyrimidin-4-yl)-4,7-diaza-spiro[2.5]octane-4-carbonyl]-1H-pyrrole-3-sulfonic acid amide] | < 0.1 µM | < 0.1 µM | < 0.1 µM | < 0.1 µM | –
19 | N#CCOc1cccc(CC(=O)N2CCN(c3ncnc4[nH]ccc34)CC23CC3)c1 [Example 70, (3-{2-Oxo-2-[7-(7H-pyrrolo[2,3-d]pyrimidin-4-yl)-4,7-diaza-spiro[2.5]oct-4-yl]-ethyl}-phenoxy)-acetonitrile] | 0.1 to 0.5 µM | 0.1 to 0.5 µM | 0.1 to 0.5 µM | > 0.5 µM | –
20 | COCC(=S)N1CCN(c2ncnc3[nH]ccc23)CC12CC2 [Example 447, 2-Methoxy-1-[7-(7H-pyrrolo[2,3-d]pyrimidin-4-yl)-4,7-diaza-spiro[2.5]oct-4-yl]-ethanethione] | – | – | – | – | EC50 [1, 13]: 0.1 to 0.5 µM; EC50 [2, 14]: < 0.1 µM; EC50 [3, 15]: < 0.1 µM; EC50 [4, 16]: 0.1 to 0.5 µM
